Measurements taken from patent US11926614B2, “1,2,4-triazole derivatives as tankyrase inhibitors” (priority 2018, dated 2024).
Where two headings read alike, the source gives them in different places.

Assays:
HEK293 = assay: Cellular IC50 HEK293; format: cell-based
Excerpt: (§1) XLfit (idbs) was used to determine the IC50-values in inhibition experiments. The following formula was chosen to fit the data points (Langmuir Binding Isotherm): fit=((A+(B*x))+4(C−B)*(1−exp((−1*D)*x)))/D)), res=(y−fit)

TNKS2 = TNKS2 (Homo sapiens (Human), UniProt Q9H2K2); assay: Biochemical IC50 TNKS2
TNKS2, sequence (Q9H2K2 whole entry): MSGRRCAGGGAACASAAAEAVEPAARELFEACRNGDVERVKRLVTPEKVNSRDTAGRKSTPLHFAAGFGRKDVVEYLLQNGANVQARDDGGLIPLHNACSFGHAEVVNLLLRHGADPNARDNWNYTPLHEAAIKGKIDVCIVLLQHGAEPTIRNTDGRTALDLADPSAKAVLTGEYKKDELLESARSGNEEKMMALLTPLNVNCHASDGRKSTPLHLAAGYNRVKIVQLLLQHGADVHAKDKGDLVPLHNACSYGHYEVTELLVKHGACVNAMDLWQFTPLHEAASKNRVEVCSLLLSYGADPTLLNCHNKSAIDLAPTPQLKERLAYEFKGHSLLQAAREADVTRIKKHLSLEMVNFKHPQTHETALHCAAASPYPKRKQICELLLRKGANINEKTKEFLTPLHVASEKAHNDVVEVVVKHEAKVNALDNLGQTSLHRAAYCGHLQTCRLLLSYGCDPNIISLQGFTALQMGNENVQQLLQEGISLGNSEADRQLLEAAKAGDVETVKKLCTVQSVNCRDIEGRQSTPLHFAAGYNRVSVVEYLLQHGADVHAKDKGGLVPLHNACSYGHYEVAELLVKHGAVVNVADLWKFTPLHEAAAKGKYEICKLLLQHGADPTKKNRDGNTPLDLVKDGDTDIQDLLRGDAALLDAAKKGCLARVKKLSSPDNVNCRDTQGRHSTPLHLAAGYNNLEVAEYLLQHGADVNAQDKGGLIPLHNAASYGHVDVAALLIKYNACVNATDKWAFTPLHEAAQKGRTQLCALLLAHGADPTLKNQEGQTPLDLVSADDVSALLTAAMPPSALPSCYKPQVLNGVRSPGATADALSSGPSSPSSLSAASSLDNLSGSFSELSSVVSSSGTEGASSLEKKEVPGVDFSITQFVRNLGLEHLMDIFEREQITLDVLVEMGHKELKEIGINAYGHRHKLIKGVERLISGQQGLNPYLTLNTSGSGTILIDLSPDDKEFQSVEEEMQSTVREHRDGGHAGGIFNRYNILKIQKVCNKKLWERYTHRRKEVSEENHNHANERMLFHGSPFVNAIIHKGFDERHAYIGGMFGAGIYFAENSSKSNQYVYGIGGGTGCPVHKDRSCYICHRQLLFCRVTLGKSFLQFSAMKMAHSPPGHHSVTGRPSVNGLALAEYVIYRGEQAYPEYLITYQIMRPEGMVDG
Excerpt: as §1

[1] = Homo sapiens, HEK293, HEK293; read-out: Cellular IC50 HEK293
[2] = read-out: Biochemical IC50 TNKS2
[3] = Homo sapiens, HEK293, read-out: Cellular IC50 HEK293

Structure (SMILES)	IC50 (HEK293; [1]) [nM]	IC50 (TNKS2; [2]) [nM]	IC50 (HEK293; [3]) [nM]	IC50 (TNKS2) [nM]	IC50 (HEK293; Homo sapiens, HEK293; read-out: Cellular IC50 HEK293) [nM]
O=C(N[C@H]1C[C@H](c2nnc(-c3nccs3)n2-c2ccccc2)C1)c1ccccc1 [Example 34, N-((1r,3r)-3-(4-phenyl-5-(thiazol-2-yl)-4H-1,2,4-triazol-3-yl)cyclobutyl)benzamide]	921	290	–	–	–
O=C(N[C@H]1C[C@H](c2nnc(-c3ccc(OC4CC4)cn3)n2-c2ccccc2F)C1)c1ccccn1 [Example 106, N-((1S,3r)-3-(5-(5-cyclopropoxypyridin-2-yl)-4-(2-fluorophenyl)-4H-1,2,4-triazol-3-yl)cyclobutyl)picolinamide]	–	8.6	49	–	–
CCOc1ccc(-c2nnc(C34CC(NC(=O)c5ccnc6cc(F)cnc56)(C3)C4)n2-c2ccc(C)s2)nc1 [Example 86, N-(3-(5-(5-ethoxypyridin-2-yl)-4-(5-methylthiophen-2-yl)-4H-1,2,4-triazol-3-yl)bicyclo[1.1.1]pentan-1-yl)-7-fluoro-1,5-naphthyridine-4-carboxamide]	1.7	2.2	–	–	–
CCOc1ccc(C(=O)N[C@H]2C[C@H](c3nnc(-c4ccc(OCC)cn4)n3-c3ccccc3F)C2)nc1 [Example 58, 5-ethoxy-N-((1S,3r)-3-(5-(5-ethoxypyridin-2-yl)-4-(2-fluorophenyl)-4H-1,2,4-triazol-3-yl)cyclobutyl)picolinamide]	10	2	–	–	–
[2H]C([2H])([2H])Oc1ccc(-c2nnc([C@H]3C[C@H](NC(=O)c4ccccn4)C3)n2-c2ccccc2F)nc1 [Example 113, N-((1S,3r)-3-(4-(2-fluorophenyl)-5-(5-(methoxy-d3)pyridin-2-yl)-4H-1,2,4-triazol-3-yl)cyclobutyl)picolinamide]	74	–	–	5.6	–
COc1ccc(C(=O)N[C@H]2C[C@H](c3nnc(-c4ccncn4)n3-c3ccccc3Cl)C2)nc1 [Example 131, N-((1R,3r)-3-(4-(2-chlorophenyl)-5-(pyrimidin-4-yl)-4H-1,2,4-triazol-3-yl)cyclobutyl)-5-methoxypicolinamide]	0.66	4.5	–	–	–
CCOc1ccc(-c2nnc([C@H]3C[C@H](NC(=O)c4cc5cc(OC)ncc5[nH]4)C3)n2-c2ccccc2F)nc1 [Example 127, N-((1S,3r)-3-(5-(5-ethoxypyridin-2-yl)-4-(2-fluorophenyl)-4H-1,2,4-triazol-3-yl)cyclobutyl)-5-methoxy-1H-pyrrolo[2,3-c]pyridine-2-carboxamide]	9.1	4.3	–	–	–
CCOc1ccc(-c2nnc([C@H]3C[C@H](NC(=O)c4ccnc5cccnc45)C3)n2-c2ccccc2)nc1 [Example 69, N-((1r,3r)-3-(5-(5-ethoxypyridin-2-yl)-4-phenyl-4H-1,2,4-triazol-3-yl)cyclobutyl)-1,5-naphthyridine-4-carboxamide]	0.712	2	–	–	–
CCOc1ccc(-c2nnc([C@H]3C[C@H](NC(=O)c4ccccn4)C3)n2-c2cccc(Cl)c2)nc1 [Example 140, N-((1r,3r)-3-(4-(3-chlorophenyl)-5-(5-ethoxypyridin-2-yl)-4H-1,2,4-triazol-3-yl)cyclobutyl)picolinamide]	–	13	83	–	–
CCOc1ccc(-c2nnc(C34CC(NC(=O)c5ccnc6cccnc56)(C3)C4)n2-c2cccnc2)nc1 [Example 166, N-(3-(5-(5-ethoxypyridin-2-yl)-4-(pyridin-3-yl)-4H-1,2,4-triazol-3-yl)bicyclo[1.1.1]pentan-1-yl)-1,5-naphthyridine-4-carboxamide]	–	9.6	–	–	30
CCOc1ccc(-c2nnc([C@H]3C[C@H](NC(=O)c4ccc5ncccc5n4)C3)n2-c2cccnc2)nc1 [Example 163, N-((1r,3r)-3-(5-(5-ethoxypyridin-2-yl)-4-(pyridin-3-yl)-4H-1,2,4-triazol-3-yl)cyclobutyl)-1,5-naphthyridine-2-carboxamide]	71	14	–	–	–
O=C(N[C@H]1C[C@H](c2nnc(-c3ccncn3)n2-c2ccccc2Cl)C1)c1cccc(F)c1 [Example 14, N-((1S,3r)-3-(4-(2-chlorophenyl)-5-(pyrimidin-4-yl)-4H-1,2,4-triazol-3-yl)cyclobutyl)-3-fluorobenzamide]	40	6.7	–	–	–
CCOc1ccc(-c2nnc([C@H]3C[C@H](NC(=O)c4cccc5cc[nH]c45)C3)n2-c2ccccc2F)nc1 [Example 115, N-((1S,3r)-3-(5-(5-ethoxypyridin-2-yl)-4-(2-fluorophenyl)-4H-1,2,4-triazol-3-yl)cyclobutyl)-1H-indole-7-carboxamide]	57	10	–	–	–
O=C(N[C@H]1C[C@H](c2nnc(-c3ccncn3)n2-c2ccccc2Cl)C1)c1ccnc2ccccc12 [Example 6, N-((1S,3r)-3-(4-(2-chlorophenyl)-5-(pyrimidin-4-yl)-4H-1,2,4-triazol-3-yl)cyclobutyl)quinoline-4-carboxamide]	1300	680	–	–	–
O=C(N[C@H]1C[C@H](c2nnc(-c3nccs3)n2-c2ccccc2F)C1)c1ccccc1 [Example 27, N-((1S,3r)-3-(4-(2-fluorophenyl)-5-(thiazol-2-yl)-4H-1,2,4-triazol-3-yl)cyclobutyl)benzamide]	470	250	–	–	–
CCOc1ccc(-c2nnc([C@H]3C[C@H](NC(=O)c4cc5sc(C)cc5[nH]4)C3)n2-c2ccccc2F)nc1 [Example 150, N-((1S,3r)-3-(5-(5-ethoxypyridin-2-yl)-4-(2-fluorophenyl)-4H-1,2,4-triazol-3-yl)cyclobutyl)-2-methyl-4H-thieno[3,2-b]pyrrole-5-carboxamide]	16	9.5	–	–	–
CCOc1ccc(-c2nnc([C@H]3C[C@H](NC(=O)c4cccc5cccnc45)C3)n2-c2ccccc2F)nc1 [Example 60, N-((1S,3r)-3-(5-(5-ethoxypyridin-2-yl)-4-(2-fluorophenyl)-4H-1,2,4-triazol-3-yl)cyclobutyl)quinoline-8-carboxamide]	1.1	2.1	–	–	–
O=C(N[C@H]1C[C@H](c2nnc(-c3ccccc3)n2-c2ccccc2F)C1)c1ccnc2cc(F)cnc12 [Example 177, 7-fluoro-N-((1S,3r)-3-(4-(2-fluorophenyl)-5-phenyl-4H-1,2,4-triazol-3-yl)cyclobutyl)-1,5-naphthyridine-4-carboxamide]	25	3.8	–	–	–
CCOc1ccc(-c2nnc([C@H]3C[C@H](NC(=O)c4cccc5cccnc45)C3)n2-c2cccc(Cl)c2)nc1 [Example 139, N-((1r,3r)-3-(4-(3-chlorophenyl)-5-(5-ethoxypyridin-2-yl)-4H-1,2,4-triazol-3-yl)cyclobutyl)quinoline-8-carboxamide]	4	8.7	–	–	–
CCOc1ccc(-c2nnc([C@H]3C[C@H](NC(=O)c4cccc(C(C)O)n4)C3)n2-c2ccccc2F)nc1 (stereo partly drawn) [Example 128, N-((1R,3r)-3-(5-(5-ethoxypyridin-2-yl)-4-(2-fluorophenyl)-4H-1,2,4-triazol-3-yl)cyclobutyl)-6-(1-hydroxyethyl)picolinamide]	230	37	–	–	–
O=C(N[C@H]1C[C@H](c2nnc(-c3nccs3)n2-c2ccccn2)C1)c1ccnc2cccnc12 [Example 37, N-((1r,3r)-3-(4-(pyridin-2-yl)-5-(thiazol-2-yl)-4H-1,2,4-triazol-3-yl)cyclobutyl)-1,5-naphthyridine-4-carboxamide]	88	25	–	–	–
O=C(N[C@H]1C[C@H](c2nnc(-c3ccncn3)n2-c2ccccc2Cl)C1)c1ccc(F)cn1 [Example 17, N-((1S,3r)-3-(4-(2-chlorophenyl)-5-(pyrimidin-4-yl)-4H-1,2,4-triazol-3-yl)cyclobutyl)-5-fluoropicolinamide]	2.4	2.7	–	–	–
CCOc1ccc(-c2nnc([C@H]3C[C@H](NC(=O)c4cc5ccccc5cn4)C3)n2-c2ccccc2F)nc1 [Example 99, N-((1S,3r)-3-(5-(5-ethoxypyridin-2-yl)-4-(2-fluorophenyl)-4H-1,2,4-triazol-3-yl)cyclobutyl)isoquinoline-3-carboxamide]	18	5.4	–	–	–
CCOc1ccc(-c2nnc([C@H]3C[C@H](NC(=O)c4nc5ccccc5[nH]4)C3)n2-c2ccccc2)nc1 [Example 73, N-((1r,3r)-3-(5-(5-ethoxypyridin-2-yl)-4-phenyl-4H-1,2,4-triazol-3-yl)cyclobutyl)-1H-benzo[d]imidazole-2-carboxamide]	102	7	–	–	–
CCOc1ccc(-c2nnc([C@H]3C[C@H](NC(=O)c4ccccc4)C3)n2-c2ccccc2Cl)nc1 [Example 136, N-((1S,3r)-3-(4-(2-chlorophenyl)-5-(5-ethoxypyridin-2-yl)-4H-1,2,4-triazol-3-yl)cyclobutyl)benzamide]	16	6.6	–	–	–
CCOc1ccc(-c2nnc([C@H]3C[C@H](NC(=O)c4cccc(C)n4)C3)n2-c2ccccc2F)nc1 [Example 119, N-((1S,3r)-3-(5-(5-ethoxypyridin-2-yl)-4-(2-fluorophenyl)-4H-1,2,4-triazol-3-yl)cyclobutyl)-6-methylpicolinamide]	39	5	–	–	–
CS(=O)(=O)c1ccc(-c2nnc([C@H]3C[C@H](NC(=O)c4ccnc5cc(F)cnc45)C3)n2-c2ccccc2F)nc1 [Example 50, 7-fluoro-N-((1S,3r)-3-(4-(2-fluorophenyl)-5-(5-(methylsulfonyl)pyridin-2-yl)-4H-1,2,4-triazol-3-yl)cyclobutyl)-1,5-naphthyridine-4-carboxamide]	0.23	1.6	–	–	–
[2H]C([2H])([2H])C([2H])([2H])Oc1ccc(-c2nnc([C@H]3C[C@H](NC(=O)c4cccc5cccnc45)C3)n2-c2ccccc2F)nc1 [Example 95, N-((1S,3r)-3-(5-(5-(ethoxy-d5)pyridin-2-yl)-4-(2-fluorophenyl)-4H-1,2,4-triazol-3-yl)cyclobutyl)quinoline-8-carboxamide]	0.48	–	–	3.5	–
